Measurements from patent publication US7258861B2, “TNF-derived peptides for use in treating oedema” (Innogenetics N.V., priority 2001, dated 2007).

Legend:
[1] = system: lung microvascular endothelial cells; test: Whole-cell patch clamp, membrane conductance in lung microvascular endothelial cells; format: cell-based, mouse
Text: (§1) Animals, cells and reagents. Male CBA/J or C57BL/6 mice, as well as male TNFR ½^0/0 C57BL/6 mice deficient in TNF receptors (Bruce et al., 1996) provided by H. Bluethmann, F. Hoffmann-La Roche, Basel, Switzerland, were used at the age of 8–10 weeks. Their care was in accordance with institutional guidelines. Lung microvascular endothelial cells were isolated from CBA/J mice and characterized as described (Jackson et al., 1990) using magnetic beads (Dynabeads M-450, Dynal, Oslo, Norway), covalently bound to a purified rat-anti-mouse PECAM-1 monoclonal antibody (donated by B. Imhof, University of Geneva). Microvascular lung endothelial cells were resuspended in DMEM containing 2 mM L-glutamine, 100 U/ml penicillin, […], 20% FCS, 40 U/ml heparin and […] endothelial cell growth supplement (Brunschwig Chemie, Basel, Switzerland). For patch clamp experiments, cells were plated onto 35×10 mm easy grip Petri dishes (Beckton Dickinson, Plymouth, UK), pre-coated with 0.2% gelatin (Sigma, Buchs, Switzerland). Resident peritoneal macrophages, isolated in ice cold RPMI containing antibiotics and 10 U/ml Heparin, were left to adhere onto 35×10 mm easy grip Petri dishes for 4 h, after which the non-adherent cells were removed. Cells were grown in RPMI 1640 containing 2 mM L-glutamine, 100 U/ml penicillin, 10 μpg/ml streptomycin and 10% fetal bovine serum (all from Gibco). For patch clamp, the macrophages ware used 24 h after isolation.
Electrophysiology. Cells were pretreated for 30 min with TNF, mutTNF and tip peptides at 37° C. in a buffer consisting of 145 mM NaCl, 3 mM KCl, 2mM CaCl2, 2mM MgCl2, 10 mM D-glucose, and 10mM Hepes, and pH-adjusted with NaOH to required value. Cells were then washed with the same buffer pH-adjusted at 7.3, and experiments were performed using the tight-seal, whole-cell recording technique. Currents were recorded with an Axopatch-200A amplifier (Axon Instrument Inc, Foster City, Calif., USA), low pass-filtered at 1 kHz. Digitalization and off-line analysis was performed using the WCP program (J. Dempster, Strathclyde Electrophysiology Software, Glasgow, UK). Patch pipettes were pulled from borosilicate glass and fire polished to have an open resistance of 3–5 MW with an internal solution containing […], 2 mM MgCl2, 10mM EGTA, 20 mM TEA-Cl, 10 mM D-glucose 10 mM Hepes, pH-adjusted to 7.3 with CsOH. Series resistances were kept under 10 MW. Capacitance and series resistance compensation were applied and set to 70%. All experiments were done at room temperature. Results are given as mean ±SEM, unless otherwise indicated. Analysis of variance was performed on currents and membrane conductance values, with post-hoc Dunn-Bonferroni test for significance of differences observed between two groups. A P value of 0.05 was considered significant.

[2] = system: resident peritoneal macrophages; test: Whole-cell patch clamp in resident peritoneal macrophages; format: cell-based, mouse; conditions: 30 min preincubation, acidic pH
Text: as §1, with “Cells were grown in RPMI 1640 containing 2 mM L-glutamine, 100 U/ml penicillin, 10 μpg/ml streptomycin and 10% fetal bovine serum (all from Gibco). For patch clamp, the macrophages ware used 24 h after isolation.” left out
(§2) Electrophysiology. […] Currents were recorded with an Axopatch-200A amplifier (Axon Instrument Inc, Foster City, Calif., USA), low pass-filtered at 1 kHz. […]

[3] = system: resident peritoneal macrophages from mice deficient in both TNF receptor-1 and -2; test: Whole-cell patch clamp in resident peritoneal macrophages of TNFR1/2-deficient mice; format: cell-based, mouse; conditions: cells lacking TNF receptors
Text: as §1, with “Cells were grown in RPMI 1640 containing 2 mM L-glutamine, 100 U/ml penicillin, 10 μpg/ml streptomycin and 10% fetal bovine serum (all from Gibco). For patch clamp, the macrophages ware used 24 h after isolation.” left out
as §2

C57/BL6 wild type mice = test: In situ mouse model of alveolar fluid clearance, wild type mice; format: in vivo; conditions: over 15 min, compared to controls; 0.5 μg/mouse instilled
Protocol: In situ mouse model. Mice were killed by an overdose of pentobarbital sodium (200 mg/kg i.p.). A tracheotomy was done with a 20-gauge trimmed angiocath plastic needle (Becton Dickinson, Sandy, Utah, USA). The lungs were inflated with 7 cm H2O continuous positive airway pressure (CPAP) with 100% oxygen throughout the experiments. Body temperature was maintained at 37–38° C. by an infra-red lamp placed 30 cm above the body (Fisher, Santa Clara, Calif., USA). The lamp was cycled on and off to maintain the core temperature. A temperature probe (Yellow Springs Instrument, Yellow Springs, Ohio, USA) was inserted via a 0.5 cm incision into the abdominal cavity to monitor the core temperature throughout the experiment. These methods have been reported in Matthay et al., 1996 and Ma et al., 2000. […] We added 0.1 μCi of ^131I-labelled albumin (Merck-Frost, Montreal, PQ, Canada) to the instillate as a labeled alveolar protein tracer. • Group 1: Basal alveolar fluid clearance in the wild type mice (n=3) and TNF-R1/TNF-R2 double knock out mice (n=3). • Group 2: Effect of wild type mTNF (0.5 μg/mouse) stimulated alveolar fluid clearance was measured in wild type mice (n=5) and TNF-R1/TNF-R2 double knock out mice (n=5) (Bruce et al., 1996).

TNF: E.coli-derived recombinant murine TNF
induced increase in conductance in presence of amiloride ([1]; 100 μM amiloride added during pretreatment at pH 6.0): abrogated | whole cell current / membrane conductance ([1]; 30 min preincubation at acidic pH (pH 6), TNF, mutTNF 100 ng/ml, peptides 100 μg/ml): significant increase in outward and, to a lesser extent, inward current | reversal potential of induced conductance ([1]; endothelial cells): about 0 mV | whole cell current / membrane conductance ([1]; preincubation at pH 7.3 (neutral pH)): did not occur | whole cell current [2]: significant increase in outward | whole cell current [3]: induced a voltage-dependent current | increase in alveolar fluid clearance (AFC) (C57/BL6 wild type mice): 24%
